Laboratory results reported in US7569563B2, “Substituted quinolones II” (AiCuris GmbH & Co. HK, priority 2005, dated 2009).
Structures can show the parent of a compound that is named as a salt.

Assays:
[1] = Cytostatic effects on NHDF cells in the anti-HCMV cytopathogenicity test; type: cell-based; details: human, human prepuce fibroblasts (NHDF cells); substance concentration at which no visible cytostatic effects on NHDF cells are evident vs untreated cell control; 6 days incubation
Description: (§1) Anti-HCMV (Anti-Human Cytomegalovirus) Cytopathogenicity Tests The test compounds are employed as 50 millimolar (mM) solutions in dimethyl sulfoxide (DMSO). Ganciclovir®, Foscamet® and Cidofovir® are used as reference compounds. After the addition of in each case 2 μl of the 50, 5, 0.5 and 0.05 mM DMSO stock solutions to 98 μl portions of cell culture medium in row […] for duplicate determinations, 1:2 dilutions are carried out with 50 μl portions of medium up to row 1 l of the 96-well plate. The wells in rows 1 and 12 each contain 50 μl of medium. 150 μl of a suspension of 1×10^4 cells (human prepuce fibroblasts [NHDF]) are then pipetted into each of the wells (row I=cell control) and, in rows 2-12, a mixture of HCMV-infected and uninfected NHDF cells (M.O.I.=0.001-0.002), i.e. 1-2 infected cells per 1000 uninfected cells. Row 12 (without substance) serves as virus control. The final test concentrations are 250-0.0005 μM. The plates are incubated at 37° C./5% CO2 for 6 days, i.e. until all the cells are infected in the virus controls (100% cytopathogenic effect [CPE]). The wells are then fixed and stained by the addition of a mixture of formalin and Giemsa's dye (30 minutes), washed with double-distilled water and dried in a drying oven at 50° C. The plates are then assessed visually using an overhead microscope (plaque multiplier from Technomara). The following data can be acquired from the test plates: CC50 (NHDF)=substance concentration in μM at which no visible cytostatic effects on the cells are evident compared with the untreated cell control;

[2] = tested on: HCMV; test: Anti-HCMV (anti-human cytomegalovirus) cytopathogenicity test; type: cell-based; details: for EC50: Human betaherpesvirus 5, 144 h, concentration inhibiting CPE by 50% vs untreated virus control, HCMV-infected NHDF cells, M.O.I. 0.001-0.002, 6 days; for SI HCMV (selectivity index): SI = CC50 (NHDF)/EC50 (HCMV)
Description: as §1, with “plates: EC50 (HCMV)=substance” for “plates: CC50 (NHDF)=substance”, “μM” for “μM at”, “which inhibits” for “which no visible cytostatic effects on”, “the CPE (cytopathic effect) by 50%” for “the cells are evident”, “untreated virus” for “untreated cell”, “control; SI (selectivity index)=CC50 (NHDF)/EC50 (HCMV).” for “control;”

Row | SMILES | CC50 at 6 days [1] [µM] | EC50 [2] [µM] | SI HCMV (selectivity index) [2]
1 | CCOC(=O)CN1[C@H](C)CN(c2c(F)cc3c(=O)c(C(=O)NCc4ccc(Cl)cc4Cl)cn(CC(F)(F)F)c3c2OC)C[C@@H]1C [Example 1, Ethyl{(2RS,6SR)-4-[3-{[(2,4-dichlorobenzyl)amino]carbonyl}-6-fluoro-8-methoxy-4-oxo-1-(2,2,2-trifluoroethyl)-1,4-dihydroquinolin-7-yl]-2,6-dimethylpiperazin-1-yl}ethanoate hydroformate] | 11 | 0.019 | 579
2 | COc1c(N2C[C@@H](C)N(CC(=O)O)[C@@H](C)C2)c(F)cc2c(=O)c(C(=O)NCc3ccc(Cl)cc3Cl)cn(CC(F)(F)F)c12 [Example 28, {(2RS,6SR)-4-[3-{[(2,4-Dichlorobenzyl)amino]carbonyl}-6-fluoro-8-methoxy-4-oxo-1-(2,2,2-trifluoroethyl)-1,4-dihydroquinolin-7-yl]-2,6-dimethylpiperazin-1-yl}ethanoic acid hydroformate] | 18 | 0.0023 | 8032
3 | COc1c(N2C[C@@H](C)N(CC(=O)O)[C@@H](C)C2)c(F)cc2c(=O)c(C(=O)NCc3ccc(Cl)cc3Cl)cn(C3CC3)c12 [Example 29, 4-[3-{1-Cyclopropyl-[(2,4-dichlorobenzyl)amino]carbonyl}-1-fluoro-8-methoxy-4-oxo-1,4-dihydroquinolin-7-yl]-(2RS,6SR)-2,6-dimethylpiperazin-1-yl}ethanoic acid hydrochloride] | 47 | 0.01 | 4700
4 | COc1c(N2C[C@@H](C)N(CC(=O)O)[C@@H](C)C2)c(F)cc2c(=O)c(C(=O)NCc3ccc(Cl)cc3Cl)cn(CCF)c12 [Example 30] | 47 | 0.008 | 5875
5 | COc1c(N2C[C@@H](C)N(CC(=O)O)[C@@H](C)C2)c(F)cc2c(=O)c(C(=O)NCc3ccc(Cl)cc3C)cn([C@H]3C[C@H]3F)c12 [Example 36] | 24 | 0.005 | 6402
6 | COc1c(N2C[C@@H](C)N(C(C)C(=O)O)[C@@H](C)C2)c(F)cc2c(=O)c(C(=O)NCc3ccc(Cl)cc3Cl)cn(C3CC3)c12 (stereo partly drawn) [Example 49] | 94 | 0.018 | 5222
